Like-named read-outs stand apart in the source and are kept apart here.

From publication PMC4657098, “A Review of the Updated Pharmacophore for the Alpha 5 GABA(A) Benzodiazepine Receptor Model” (International Journal of Medicinal Chemistry, 2015) come the findings set out here.

The target in one assay is α2β3γ2 GABAA/BzR (Homo sapiens, UniProt P18507+P47869). The experiment in a line: Competition binding to HEK cell membranes, α2β3γ2. Also on record: expressed in transfected cells. Particulars: read-out: Ki α2.
For the next assay, the target named is α5β3γ2 GABAA/BzR (Homo sapiens, UniProt P18507+P31644). The experiment in a line: Competition binding to HEK cell membranes, α5β3γ2. Details: expressed in transfected cells. The following applies: read-out: Ki α5.
The target of another assay is α3β3γ2 GABAA/BzR (Homo sapiens, UniProt P18507+P34903). The experiment in a line: Competition binding to HEK cell membranes, α3β3γ2. The following applies: read-out: Ki α3. Also on record: expressed in transfected cells.
In the next assay the target is α1β3γ2 GABAA/BzR (Homo sapiens, UniProt P14867+P18507). Briefly: Competition binding to HEK cell membranes, α1β3γ2. Details: expressed in transfected cells. The following applies: read-out: Ki α1.
The next assay concerns the target α6β3γ2 GABAA/BzR (Homo sapiens, UniProt P18507+Q16445). Briefly: Competition binding to HEK cell membranes, α6β3γ2. Also on record: expressed in transfected cells. Particulars: read-out: Ki α6.
For another assay, the target named is T1, α4β3γ2 GABAA/BzR (Homo sapiens, UniProt P18507+P48169).
T1 construct: expressed in transfected cells; host or cells: LTK cells (given for XLi-093 only)
Briefly: biochemical. It is filed as binding. The following applies: read-out: Ki α4.

As a reminder, the Ki is the dissociation constant of the complex between target and ligand, obtained from inhibition or displacement. Turning to `CCOC(=O)c1ncn2c1C1CCN1C(=O)c1cc(OC)ccc1-2` (stereo not shown) [CM-D44], the Ki on α2β3γ2 GABAA/BzR is 0.0563 µM; at α5β3γ2 GABAA/BzR, 0.00057 µM; at α3β3γ2 GABAA/BzR, 0.0207 µM; on α1β3γ2 GABAA/BzR it was 0.0343 µM; on α6β3γ2 GABAA/BzR, 0.00092 µM; on α4β3γ2 GABAA/BzR it was 0.00033 µM.

Consider `COc1ccc2c(c1)C(=O)N1CCC1c1c(C(=O)OC(C)(C)C)ncn1-2` (stereo not shown) [CM-D45 C19H21N3O4], for which the Ki was 0.0655 µM at α2β3γ2 GABAA/BzR; 0.00165 µM on α5β3γ2 GABAA/BzR; 0.0303 µM at α3β3γ2 GABAA/BzR; 0.0905 µM on α1β3γ2 GABAA/BzR; 0.00023 µM on α6β3γ2 GABAA/BzR; 0.00015 µM at α4β3γ2 GABAA/BzR.

In the case of `CCC(OC(=O)c1ncn2c1C1CCCN1C(=O)c1cc(Br)ccc1-2)C(F)(F)F` (stereo not shown) [MMB-II-87], the Ki on α2β3γ2 GABAA/BzR amounted to 0.333 µM; at α5β3γ2 GABAA/BzR, 0.0054 µM; on α3β3γ2 GABAA/BzR, 0.107 µM; on α1β3γ2 GABAA/BzR, 0.2 µM; on α6β3γ2 GABAA/BzR it was 0.333 µM; on α4β3γ2 GABAA/BzR it was 0.109 µM.

In the case of `C#Cc1ccc2c(c1)C(c1ccccc1F)=NCC(=O)N2C` [OMB-18], the inhibitory constant (Ki) on α2β3γ2 GABAA/BzR came out at 0.0012 µM; at α5β3γ2 GABAA/BzR it was 0.0008 µM; at α3β3γ2 GABAA/BzR, 0.0034 µM; on α1β3γ2 GABAA/BzR, 0.0039 µM; at α6β3γ2 GABAA/BzR it was 0.005 µM; on α4β3γ2 GABAA/BzR, 1.73 µM.

`CC(C)OC(=O)c1ncn2c1[C@@H]1CCCN1C(=O)c1ccccc1-2` [MMB-III-016]: the inhibition constant Ki was found to be 0.00197 µM at α2β3γ2 GABAA/BzR; 0.00026 µM at α5β3γ2 GABAA/BzR; 0.002 µM at α3β3γ2 GABAA/BzR; 0.003 µM on α1β3γ2 GABAA/BzR; 0.211 µM at α6β3γ2 GABAA/BzR; 1.07 µM at α4β3γ2 GABAA/BzR.

For `CCC(C)OC(=O)c1ncn2c1C1CCCN1C(=O)c1cc(F)ccc1-2` (stereo not shown) [CM-B44], the Ki on α2β3γ2 GABAA/BzR was found to be 0.043 µM; at α5β3γ2 GABAA/BzR it was 0.0043 µM; at α3β3γ2 GABAA/BzR, 0.012 µM; at α1β3γ2 GABAA/BzR, 0.032 µM; at α6β3γ2 GABAA/BzR it was 0.485 µM; on α4β3γ2 GABAA/BzR it was 0.379 µM.

In the case of `COc1ccc2c(c1)C(=O)N1CCCC1c1c(C(=O)OC(C)C)ncn1-2` (stereo not shown) [CM-E09b], the Ki at α2β3γ2 GABAA/BzR was found to be 0.022 µM; at α5β3γ2 GABAA/BzR, 0.00045 µM; on α3β3γ2 GABAA/BzR it was 0.019 µM; on α1β3γ2 GABAA/BzR, 0.02 µM; at α6β3γ2 GABAA/BzR, 0.069 µM; on α4β3γ2 GABAA/BzR it was 0.055 µM.

Regarding `CCOC(=O)c1cc2c(cn1)[nH]c1ccc(I)cc12` [CM-B01], the inhibition constant Ki was determined as 0.031 µM at α2β3γ2 GABAA/BzR; 0.286 µM on α5β3γ2 GABAA/BzR; 0.034 µM on α3β3γ2 GABAA/BzR; 0.0048 µM on α1β3γ2 GABAA/BzR; 1 µM on α6β3γ2 GABAA/BzR; 1 µM at α4β3γ2 GABAA/BzR.

With `CC(OC(=O)c1ncn2c1C1CCCN1C(=O)c1ccccc1-2)C(F)(F)F` (stereo not shown) [MMB-III-14], the inhibitory constant (Ki) at α2β3γ2 GABAA/BzR turned out to be 0.013 µM; at α5β3γ2 GABAA/BzR it was 0.0011 µM; at α3β3γ2 GABAA/BzR, 0.0069 µM; on α1β3γ2 GABAA/BzR, 0.013 µM; on α6β3γ2 GABAA/BzR, 0.333 µM; on α4β3γ2 GABAA/BzR, 0.333 µM.

For the compound `CCC(OC(=O)c1ncn2c1C1CCCN1C(=O)c1cc(Cl)ccc1-2)C(F)(F)F` (mixture of isomers) [CM-B45], the inhibition constant (Ki) at α2β3γ2 GABAA/BzR came out at 0.557 µM; at α5β3γ2 GABAA/BzR, 0.015 µM; on α3β3γ2 GABAA/BzR, 0.336 µM; on α1β3γ2 GABAA/BzR, 0.23 µM; on α6β3γ2 GABAA/BzR, 0.23 µM; on α4β3γ2 GABAA/BzR, 0.265 µM.

With `COc1ccc2c(c1)C(=O)N1CCC[C@H]1c1c(C(=O)OCC(F)(F)F)ncn1-2` [CM-E09a], the Ki stood at 0.192 µM at α2β3γ2 GABAA/BzR; 0.0092 µM on α5β3γ2 GABAA/BzR; 0.122 µM on α3β3γ2 GABAA/BzR; 0.176 µM on α1β3γ2 GABAA/BzR; 0.718 µM on α6β3γ2 GABAA/BzR; 0.49 µM on α4β3γ2 GABAA/BzR.

In the case of `CC(C)(C)OC(=O)c1ncn2c1[C@@H]1CCCN1C(=O)c1cc(-c3ccco3)ccc1-2` [JYI-06], the inhibition constant (Ki) at α2β3γ2 GABAA/BzR came out at 0.00548 µM; at α5β3γ2 GABAA/BzR, 0.0126 µM; on α3β3γ2 GABAA/BzR, 5 µM; at α1β3γ2 GABAA/BzR, 0.0165 µM; on α6β3γ2 GABAA/BzR it was 5 µM.

Regarding `C#Cc1ccc2c(c1)C(c1ccccc1F)=NCc1c(C(=O)OCC(F)(F)F)ncn1-2` [JYI-59], the Ki is 0.0026 µM at α2β3γ2 GABAA/BzR; 0.0115 µM at α5β3γ2 GABAA/BzR; 0.0118 µM on α3β3γ2 GABAA/BzR; 0.00108 µM at α1β3γ2 GABAA/BzR; 5 µM at α6β3γ2 GABAA/BzR.

In the case of `O=C(OC(C(F)(F)F)C(F)(F)F)c1ncn2c1C1CCCN1C(=O)c1ccccc1-2` (stereo not shown) [MMB-III-18], the Ki is 0.14 µM at α2β3γ2 GABAA/BzR, 0.014 µM on α5β3γ2 GABAA/BzR, 0.078 µM at α3β3γ2 GABAA/BzR and 3.5 µM on α4β3γ2 GABAA/BzR.

For the compound `CCOC(=O)c1ncoc1-c1ncn2c1C1CCN1C(=O)c1cc(Br)ccc1-2` (stereo not shown) [RY-062 (12)], the Ki on α2β3γ2 GABAA/BzR (Figure 5) is > 1 µM; on α5β3γ2 GABAA/BzR (Figure 5) it was 0.172 µM; on α3β3γ2 GABAA/BzR (Figure 5), > 0.5 µM; at α1β3γ2 GABAA/BzR (Figure 5), > 1 µM; at α6β3γ2 GABAA/BzR (Figure 5) it was > 2 µM.
